Results published in US20250388574A1, “HETEROCYCLIC COMPOUNDS AS TRIGGERING RECEPTOR EXPRESSED ON MYELOID CELLS 2 AGONISTS AND METHODS OF USE” (AMGEN INC., priority 2020, published 2025).

Target: hTREM2 (Homo sapiens, UniProt Q9NZC2)
Assay: Phospho-Syk AlphaScreen/AlphaLISA assay in TREM2 and DAP12 overexpressing HEK293 cells (Example A1)
Assay type: cell-based
Set-up: expressed in transfected cells
Details: HEK293 cells; for EC50: read-out: hTREM2 EC50
Method: Pharmacological measurements of TREM2 signaling through DAP12 were made with TREM2 and DAP12 overexpressing HEK293 cells stable cell lines that had been single-cell cloned (“TREM2/DAP12-HEK”). The readout of the TREM2 signaling utilized Perkin Elmer AlphaScreen/AlphaLISA technology monitoring the phosphorylation levels of the Syk kinase. TREM2/DAP12-HEK cell lines were cultured in DMEM-F12 (Corning 10-092-CM) supplemented with 1× Penicillin/Streptomycin (Corning 30-002-CI), 1× GlutaMAX (Gibco 35050-061), and 10% Fetal Bovine Serum (Life Technologies 10099) referred to as “HEK Culture Medium”. Suspensions of TREM2/DAP12-HEK cells were prepared in HEK Culture Medium and dispensed into 384-well poly-D-lysine coated microplates (Corning 354661) at a density of 20,000 cells/well using a Multidrop Combi peristaltic microplate dispenser (Thermo), 25 uL volume of cell suspension/well. Plates containing cells were then incubated for 20 hours in a humidified cell culture incubator at 37° C. with 5% CO2 (Thermo). […] Assay Buffer contained diluted test articles (in 1% final DMSO concentration for compounds) or 100 nM anti-human/mouse TREM2 antibody (R&D Systems MAB17291) as a positive control, 100 nM or rat IgG2B isotype Ab as a negative control (R&D Systems MAB0061). Incubated the plates with test articles and controls for 45 minutes at room temperature and then aspirated/removed the medium from each well of the plates. Used a Multidrop Combi peristaltic liquid handler (Thermo) to dispense 15 uL/well of “Cell Lysis Immunoassay Buffer”. The Cell Lysis Immunoassay Buffer contained M-PER Mammalian Protein Extraction Reagent (Pierce/ThermoFisher 78505), 1× Halt Phosphatase Inhibitor Cocktail (ThermoFisher #78427), 0.1875 nM anti-phospho-Syk ([…]/526) ([…]) rabbit mAb (Cell Signaling Technologies catalog #2710), and 1.5 nM biotinylated Mouse anti-human Syk (4D10) antibody (BD Biosciences, catalog #624008). Incubated plates for 1 hour at room temperature after the addition of the Cell Lysis Immunoassay Buffer. Used the Multidrop Combi liquid handler to dispense 15 μL of AlphaScreen Acceptor Bead Solution containing 7.5 μg/mL anti-rabbit IgG (Fc specific) AlphaLISA Acceptor Beads (Perkin Elmer A[…]) in 1× Immunoassay buffer (Perkin Elmer A[…]) to each well of the microplates. Incubated plates for 2 hours at room temperature. Following the incubation with the AlphaLISA Acceptor Bead Solution, used a Multidrop Combi liquid handler (Thermo) to dispense 15 μL of AlphaScreen Donor Bead Solution containing 30 μg/mL of AlphaScreen Streptavidin Donor beads (Perkin Elmer 6760002B) in 1× Immunoassay buffer (Perkin Elmer A[…]) to each well of the microplates. Incubated microplates for 2 hours protected from light sources as the AlphaScreen reagents are light sensitive. Once the final incubation was completed, acquired AlphaScreen signal from the donor and acceptor beads using an Envision high throughput multi-modal microplate reader (Perkin Elmer) calibrated to the plate type with the AlphaScreen mirror and filter-set in 384-well mode, 680 nanometer excitation wavelength. The total measurement time per well was 550 milliseconds with a 180 millisecond excitation time. After reading the AlphaScreen signal for each well of the microplates, on a plate-by-plate basis, each raw test article well value (x) was normalized to a Percent of Control (“POC”) value using the following formula: […] Each plate contained 12 of each type of control wells that were used to generate the mean values. For concentration response curve analysis with test articles tested at various concentrations, the % of activation values were analyzed with 4 Parameter Logistic or Sigmoidal Dose-Response Models using GeneData Screener (GeneData, AG) or GraphPad Prism 7 (Graphpad Software, Inc.). […] This assay may be used to test any of the compounds described herein to assess and characterize a compound's ability to act as an agonist of TREM2.

Chain of hTREM2 (Q9NZC2 19-230): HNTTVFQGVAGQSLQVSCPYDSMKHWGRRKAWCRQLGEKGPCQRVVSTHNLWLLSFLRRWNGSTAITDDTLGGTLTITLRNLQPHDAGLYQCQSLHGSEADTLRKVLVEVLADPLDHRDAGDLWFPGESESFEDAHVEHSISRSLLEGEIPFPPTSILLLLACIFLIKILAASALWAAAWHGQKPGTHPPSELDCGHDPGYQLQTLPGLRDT
Chain of hTREM2 (O43914 22-113 partner): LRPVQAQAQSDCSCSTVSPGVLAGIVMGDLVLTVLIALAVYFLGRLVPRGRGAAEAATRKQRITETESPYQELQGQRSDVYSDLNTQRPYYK

Compound | Emax | EC50
Cc1nc2cc([C@@H]3CCO[C@H](c4cnn(C)c4)C3)nc(-c3ccc(Cl)cc3F)c2c(=O)n1C (single isomer, unassigned) [Example 163] | +++ (Emax>200 and ≤300) | 3000 to 100000 nM
Cc1nc2cc(N3CCC[C@H](N4CCC4)C3)nc(-c3ccc(Cl)cc3F)c2c(=O)n1C [Example 245, (S)-7-(3-(azetidin-1-yl)piperidin-1-yl)-5-(4-chloro-2-fluorophenyl)-2,3-dimethylpyrido[4,3-d]pyrimidin-4(3H)-one] | ++ (Emax>100 and ≤200) | 3000 to 100000 nM
Cc1nc2cc(N3CCO[C@@H]([C@H]4CCO4)C3)nc(-c3ccc(Cl)cc3F)c2c(=O)n1C (single isomer, unassigned) [Example 38] | +++ (Emax>200 and ≤300) | 500 to 3000 nM
Cc1nc2cc(N3CCO[C@H](c4cnn(C)c4)C3)nc(-c3ccc(Cl)cc3)c2c(=O)n1C [Example 220, (R)-5-(4-chlorophenyl)-2,3-dimethyl-7-(2-(1-methyl-1H-pyrazol-4-yl)morpholino)pyrido[4,3-d]pyrimidin-4(3H)-one] | ++++ (Emax>300) | 50 to 500 nM
Cc1cnn([C@H]2CCCN(c3cc4nc(C)n(C)c(=O)c4c(-c4ccc(Cl)cc4F)n3)C2)c1 [Example 231, (S)-5-(4-chloro-2-fluorophenyl)-2,3-dimethyl-7-(3-(4-methyl-1H-pyrazol-1-yl)piperidin-1-yl)pyrido[4,3-d]pyrimidin-4(3H)-one] | +++ (Emax>200 and ≤300) | 500 to 3000 nM
Cc1nc2cc(N3CCO[C@H](c4cccc(C(F)(F)F)c4)C3)nc(-c3ccc(Cl)cc3F)c2c(=O)n1C (single isomer, unassigned) [Example 92] | ++++ (Emax>300) | 50 to 500 nM
CCn1cc([C@H]2CN(c3cc4nc(C)n(C)c(=O)c4c(-c4ccc(Cl)cc4F)n3)CCO2)cn1 (single isomer, unassigned) [Example 23] | ++++ (Emax>300) | < 50 nM
Cc1nnc([C@H]2CN(c3cc4nc(C)n(C)c(=O)c4c(-c4ccc(Cl)cc4F)n3)CCO2)o1 [Example 271, (R)-5-(4-chloro-2-fluorophenyl)-2,3-dimethyl-7-(2-(5-methyl-1,3,4-oxadiazol-2-yl)morpholino)pyrido[4,3-d]pyrimidin-4(3H)-one] | +++ (Emax>200 and ≤300) | 50 to 500 nM
Cc1nc2cc(N3CCO[C@@H](c4cnn(C)c4)C3)nc(-c3ccc(Cl)cc3F)c2c(=O)n1C1CCCCC1 [Example 18, 5-(4-chloro-2-fluorophenyl)-3-cyclohexyl-2-methyl-7-((2S)-2-(1-methyl-1H-pyrazol-4-yl)-4-morpholinyl)pyrido[4,3-d]pyrimidin-4(3H)-one] | ++ (Emax>100 and ≤200) | 500 to 3000 nM
Cc1nc2cc(N3CCO[C@@H](c4cnn(C)c4)C3)nc(-c3ccc(Cl)c(F)c3)c2c(=O)n1C [Example 7, 5-(4-chloro-3-fluorophenyl)-2,3-dimethyl-7-((2S)-2-(1-methyl-1H-pyrazol-4-yl)-4-morpholinyl)pyrido[4,3-d]pyrimidin-4(3H)-one] | ++++ (Emax>300) | 50 to 500 nM
Cc1nc2cc(N3CCO[C@@H](c4cnn(C)c4)C3)nc(-c3ccc(Cl)cc3F)c2c(=O)n1CC(F)(F)F [Example 19, 5-(4-chloro-2-fluorophenyl)-2-methyl-7-((2S)-2-(1-methyl-1H-pyrazol-4-yl)-4-morpholinyl)-3-(2,2,2-trifluoroethyl)pyrido[4,3-d]pyrimidin-4(3H)-one] | ++++ (Emax>300) | < 50 nM
Cc1nc2cc(N3CCO[C@@H](c4cnn(C(F)F)c4)C3)nc(-c3ccc(Cl)cc3F)c2c(=O)n1C [Example 253, (S)-5-(4-chloro-2-fluorophenyl)-7-(2-(1-(difluoromethyl)-1H-pyrazol-4-yl)morpholino)-2,3-dimethylpyrido[4,3-d]pyrimidin-4(3H)-one] | ++++ (Emax>300) | < 50 nM
Cc1ccc([C@@H]2C[C@H](c3cc4nc(C)n(C)c(=O)c4c(-c4ccc(Cl)cc4F)n3)CCO2)cn1 [Example 274, 5-(4-chloro-2-fluorophenyl)-2,3-dimethyl-7-((2S,4R)-2-(6-methylpyridin-3-yl)tetrahydro-2H-pyran-4-yl)pyrido[4,3-d]pyrimidin-4(3H)-one] | ++++ (Emax>300) | 50 to 500 nM
Cc1nc2cc(N3CCc4ccnc(Cl)c4C3)nc(-c3ccc(Cl)cc3F)c2c(=O)n1C [Example 115, 7-(8-chloro-3,4-dihydro-2,7-naphthyridin-2(1H)-yl)-5-(4-chloro-2-fluorophenyl)-2,3-dimethylpyrido[4,3-d]pyrimidin-4(3H)-one] | +++ (Emax>200 and ≤300) | 50 to 500 nM
Cc1nc2cc(N3CCO[C@@H]([C@@H]4CCO4)C3)nc(-c3ccc(Cl)cc3F)c2c(=O)n1C [Example 270, 5-(4-chloro-2-fluorophenyl)-2,3-dimethyl-7-((R)-2-((S)-oxetan-2-yl)morpholino)pyrido[4,3-d]pyrimidin-4(3H)-one] | +++ (Emax>200 and ≤300) | 500 to 3000 nM
Cc1nc2cc(N3CCO[C@H](c4noc(C5CC5)n4)C3)nc(-c3ccc(Cl)cc3F)c2c(=O)n1C (single isomer, unassigned) [Example 85] | ++++ (Emax>300) | 3000 to 100000 nM
CCCn1c(C)nc2cc(N3CCO[C@H](C(F)(F)F)C3)nc(-c3ccc(Cl)cc3F)c2c1=O [Example 180, (S)-5-(4-chloro-2-fluorophenyl)-2-methyl-3-propyl-7-(2-(trifluoromethyl)morpholino)pyrido[4,3-d]pyrimidin-4(3H)-one] | ++++ (Emax>300) | 500 to 3000 nM
Cc1csc(C2CN(c3cc4nc(C)n(C)c(=O)c4c(-c4ccc(Cl)cc4F)n3)CCO2)n1 (stereo not shown) [Example 75, 5-(4-chloro-2-fluorophenyl)-2,3-dimethyl-7-(2-(4-methyl-1,3-thiazol-2-yl)-4-morpholinyl)pyrido[4,3-d]pyrimidin-4(3H)-one] | ++++ (Emax>300) | 50 to 500 nM
Cc1cc([C@@H]2CN(c3cc4nc(C)n(C)c(=O)c4c(-c4ccc(Cl)cc4F)n3)CCO2)cc(C)n1 (single isomer, unassigned) [Example 76] | ++++ (Emax>300) | 50 to 500 nM
Cc1nc2cc(N3C[C@@H](C)O[C@@H](c4cnn(C)c4)C3)nc(-c3ccc(Cl)cc3F)c2c(=O)n1C (single isomer, unassigned) [Example 28] | +++ (Emax>200 and ≤300) | < 50 nM
Cc1nc2cc(N3C[C@H](C)O[C@@H](c4ccsc4)C3)nc(-c3ccc(Cl)cc3F)c2c(=O)n1C (single isomer, unassigned) [Example 71] | ++++ (Emax>300) | 50 to 500 nM
Cc1nc2cc(N3CCO[C@@](C)(C4CC4)C3)nc(-c3ccc(Cl)cc3F)c2c(=O)n1C [Example 219, (S)-5-(4-chloro-2-fluorophenyl)-7-(2-cyclopropyl-2-methylmorpholino)-2,3-dimethylpyrido[4,3-d]pyrimidin-4(3H)-one] | ++ (Emax>100 and ≤200) | 500 to 3000 nM
Cc1nc2cc(N3CC[C@H](N4CCOCC4)C3)nc(-c3ccc(Cl)cc3F)c2c(=O)n1C [Example 208, (S)-5-(4-chloro-2-fluorophenyl)-2,3-dimethyl-7-(3-morpholinopyrrolidin-1-yl)pyrido[4,3-d]pyrimidin-4(3H)-one] | ++ (Emax>100 and ≤200) | 3000 to 100000 nM
